Where two headings read alike, the source gives them in different places. Non-standard residues stand in square brackets, D forms with d. Primed or numbered codes have the meaning given here. No end group written: not given here. Ida = iminodiacetic acid linker, its two carboxyls bind the Lys side-chain amines of two peptides, giving a homodimer; Ida(3) = iminodiacetic acid linker, Lys side-chain amines bound to its two carboxyl groups; Dip = N[C@H](C(=O)O)C(c1ccccc1)c1ccccc1; Phg = N[C@H](C(=O)O)c1ccccc1; GP3 = not defined here; Ahx = NCCCCCC(=O)O
What was measured:
[1] = system: bFGF-induced angiogenesis in Matrigel plugs; assay: Murine Matrigel plug angiogenesis assay; type: in vivo, C57B1/6 mice; details: 10-12 days of treatment, hemoglobin in plugs vs +bFGF/Buffer control
Procedure: In order to assess the effect of the peptides in this invention on angiogenesis, an additional assay was used to assess antiangiogenic activity.
Briefly, Matrigel (BD Biosciences, San Jose, Calif.) is mixed with 0.5 μg/ml of bFGF. 0.5 ml of this Matrigel/bFGF mixture is then injected subcutaneously on the ventral abdominal surface at the level of the xiphoid process of C57B1/6 mice. Matrigel plugs, injected in absence of bFGF addition, are used as negative controls. Treatment with various peptides is initiated 12-18 hours later. Animals are treated by i.p. administration of peptides, dosed at 0.2mg/d of peptide dimers, and 1.4 mg/d of Pegylated peptide dimers. After 10-12 days of treatment, animals are euthanized, and the Matrigel plugs are surgically removed, and cleaned of mouse tissue, fascia, and fat. […] After centrifugation, supernatant for each plug is assayed for the presence of Hemoglobin using a Serum Hemoglobin analysis kit (Sigma Diagnostics, St. Louis, Mo.). Angiogenesis is defined as the fold increase of hemoglobin in the buffer control treated mouse Matrigel plugs, above the amount of hemoglobin in negative (−bFGF) control Matrigel plugs. For experimental peptide treated animals, the percent inhibition is defined as the inhibition seen when comparing positive control plugs (+bFGF/ Buffer treatment) with peptide treated plugs (+bFGF/ Peptide treatment).

[2] = system: HUVECs; type: cell-based
Procedure, shortened: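 HUVECs seeded at 5,000 cells/well in EBM with 2% FCS, adhered ≥12 hours, then stimulated with bFGF 10 ng/ml or VEGF 5 ng/ml plus varying peptide concentrations. After 48 hours at 37 ° C, 5% CO2, proliferation inhibition read by BrdU incorporation.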

[3] = HUVEC proliferation, bFGF at 10 ng/ml or VEGF at 5 ng/ml, 48 hours, BrdU incorporation, read-out: IC50 on HUVECs
[4] = Pegylated peptide dimers, i.p. 1.4 mg/d

167 (Ac-RRRRRQRVRIIFK; not fully specified (C-terminus); also: homodimer via Ida linker on Lys13 side chains) [compound 167]
Matrigel Model % Inhibition ([1]; peptide dimers, i.p. 0.2mg/d): 42.0%
IC50 [2, 3]: < 10 µM

381 (Ac-ARRRRQAVAIYFK-NH2; not fully specified (residue 13); also: homodimer via Ida-PEG 30 kDa linker on Lys13 side chain) [compound 381]
Matrigel Model % Inhibition [1, 4]: 51.0%
IC50 [2, 3]: < 10 µM

376 (Ac-ARRRRQRVAIYFK-NH2; not fully specified (residue 13); also: homodimer via Ida-PEG 30 kDa linker on Lys13 side chain) [compound 376]
Matrigel Model % Inhibition [1, 4]: 42.0%
IC50 [2, 3]: < 10 µM

267 (Ac-RRRRRQAVAIYFK-NH2; not fully specified (residue 13); also: homodimer via Ida linker on Lys13 side chain) [compound 267]
Matrigel Model % Inhibition ([1]; peptide dimers, i.p. 0.2mg/d): 36.0%
IC50 [2, 3]: < 10 µM

228 (Ac-ARRRRQRVAIYFK; also: homodimer via Ida linker on side chain of Lys13) [compound 228]
Matrigel Model % Inhibition ([1]; peptide dimers, i.p. 0.2mg/d): 55.0%
IC50 [2, 3]: < 10 µM

331 (Ac-ARRRRQRVAIYFK-NH2; not fully specified (residue 13); also: homodimer via Lys13 side chain, GP3 linker) [compound 331]
Matrigel Model % Inhibition ([1]; peptide dimers, i.p. 0.2mg/d): 44.0%
IC50 [2, 3]: < 10 µM

315 (Ac-ARRRRQAVAIYFK(Ida)-NH2; also: homodimer via Ida linker on Lys13 side chain) [compound 315]
Matrigel Model % Inhibition ([1]; peptide dimers, i.p. 0.2mg/d): 52.0%
IC50 [2, 3]: < 10 µM

375 (Ac-RRRRRQRVRIIFK-NH2; not fully specified (residue 13); also: homodimer via Ida-PEG 30 kDa linker on Lys13 side chain) [compound 375]
Matrigel Model % Inhibition [1, 4]: 46.0%
IC50 [2, 3]: < 10 µM

260 (Ac-ARRR[dR]QRVAIIFK-NH2; not fully specified (residue 13); also: homodimer via Ida linker on Lys13 side chains) [compound 260]
IC50 [2, 3]: < 10 µM

306 (Ac-RRRRRQAVRIK(Ida)FV; also: homodimer via Ida linker on Lys11 side chain) [compound 306]
IC50 [2, 3]: < 10 µM

KTKRKRKKQRVKIAFVQNM [compound 110]
IC50 [2, 3]: 10 to 30 µM

243 (Ac-RRHRRQRVHIIF; also: dimer via C-terminal Phe to Lys linker) [compound 243]
IC50 [2, 3]: < 10 µM

422 (Ac-ARRRRQTVAIYFK; not fully specified (residue 13, C-terminus); also: homodimer of residues 1-13 via Ida linker on K13 side chain) [compound 422]
IC50 [2, 3]: < 10 µM

206 (Ac-RRRAAQRVRIIF; also: dimer: Phe C-termini joined via Lys linker) [compound 206]
IC50 [2, 3]: < 10 µM

RKRKKQRVKIAYEEIFVQNM [compound 21]
IC50 [2, 3]: > 30 µM

233 (XRRRRQHVRIIF; Xaa = Acylated Histidine; Dimeric peptide wherein the C terminus of Phe in position 12 of one peptide chain is covalently bound to one of the amino groups of a Lysine linker and Phe of the remaining peptide chain is covalently bound to the other amino group of the Lysine linker.) [compound 233]
IC50 [2, 3]: < 10 µM

493 (Ac-ARRRNQPVAIKF; not fully specified (residue 11); also: homodimer: Lys11 side chain bound to Ida linker (Boc on Ida N)) [compound 493]
IC50 [2, 3]: > 30 µM

KTKRKRKKQAAKIAYEEIFVQNM [compound 73]
IC50 [2, 3]: > 30 µM

467 (Ac-ARK(Ida(3))RRQAVAIYF; also: homodimer via Ida linker on Lys3 side chain) [compound 467]
IC50 [2, 3]: > 30 µM

368 (Ac-ARRRRQRVA[Dip]YFK-NH2; not fully specified (residue 13); printed as [AcARRRRQRVA3,3-diphenylAlaYFK*]; also: homodimer via Ida linker on Lys13 side chain, Boc on Ida amine) [compound 368]
IC50 [2, 3]: < 10 µM

343 (Ac-ARRRRQRVAIY[Phg]K-NH2; not fully specified (residue 13); also: homodimer via Lys13 side chain, Ida linker) [compound 343]
IC50 [2, 3]: < 10 µM

394 (Ac-ARRRRQAVSIYFK; not fully specified (residue 13, C-terminus); also: homodimer of residues 1-13 via Ida linker at Lys13 side chain) [compound 394]
IC50 [2, 3]: < 10 µM

129 (TKRKRKKQRVKI[Ahx][Ahx]IF; also: dimer: C-terminus of Phe16 of each chain bound to one amino group of a Lysine linker) [compound 129]
IC50 [2, 3]: < 10 µM

511 (Ac-ARRRRFRVAIYFK; not fully specified (C-terminus); also: homodimer via Ida linker at Lys13 side chain) [compound 511]
IC50 [2, 3]: 10 to 30 µM

428 (Ac-ARRRRQAVAIK(GP3)F; reading uncertain; also: homodimer via GP3 linker at K11) [compound 428]
IC50 [2, 3]: < 10 µM

KTKRKRKKQRVEEIFVQNM [compound 31]
IC50 [2, 3]: > 30 µM

348 (Ac-ARRRRQRVAIYHK-NH2; not fully specified (residue 13); also: homodimer of residues 1-13 via Ida linker on Lys13 side chain) [compound 348]
IC50 [2, 3]: > 30 µM

407 (Ac-NRRRRQAVAIYFK; not fully specified (residue 13, C-terminus); also: homodimer via Ida linker on Lys side chains, linker at 13 via Ida, other end not in the chain) [compound 407]
IC50 [2, 3]: < 10 µM

215 (Ac-ARRRAQRVAIIF; also: dimer: Phe C-termini joined via Lys linker) [compound 215]
IC50 [2, 3]: < 10 µM

390 (Ac-ARRRRQAVMIYFK; not fully specified (residue 13, C-terminus); also: homodimer of residues 1-13 via Ida linker at Lys13 side chain) [compound 390]
IC50 [2, 3]: < 10 µM

398 (Ac-ARRRRQAVLIYFK; not fully specified (residue 13, C-terminus); also: homodimer of residues 1-13 via Ida linker at Lys13 side chain) [compound 398]
IC50 [2, 3]: < 10 µM

KTKRARKKQRVKIIFVQNM [compound 119]
IC50 [2, 3]: < 10 µM

179 (Ac-RRRRRQRVAIIF; also: dimer: C-terminus of Phe12 of each chain bound to one amino group of a Lys linker) [compound 179]
IC50 [2, 3]: < 10 µM

506 (Ac-ARRRRQRVAIYFKGGRGDSP; also: homodimer via Ida linker at Lys13 side chain) [compound 506]
IC50 [2, 3]: < 10 µM

171 (Ac-RRRRRQRVRIIFK; also: homodimer via GP3-PEG 20 kDa linker on Lys13 side chains) [compound 171]
IC50 [2, 3]: < 10 µM

380 (Ac-ARRRRQEVAIYFK-NH2; not fully specified (residue 13); also: homodimer via Ida linker on Lys13 side chain, Ida amine Boc) [compound 380]
IC50 [2, 3]: < 10 µM

370 (Ac-ARRRRQRVAFYFK-NH2; not fully specified (residue 13); also: homodimer via Ida linker on Lys13 side chain, Boc on Ida amine) [compound 370]
IC50 [2, 3]: < 10 µM

CC[C@H](C)[C@H](NC(=O)[C@H](CCCNC(=N)N)NC(=O)[C@@H](NC(=O)[C@H](Cc1c[nH]cn1)NC(=O)[C@H](CCC(N)=O)NC(=O)[C@H](CCCNC(=N)N)NC(=O)[C@H](CCCNC(=N)N)NC(=O)[C@H](Cc1c[nH]cn1)NC(=O)[C@H](Cc1c[nH]cn1)NC(=O)[C@H](CCCNC(=N)N)NC(C)=O)C(C)C)C(=O)N[C@@H](Cc1ccc(O)cc1)C(=O)N[C@@H](Cc1ccccc1)C(=O)N[C@@H](CCCCNC(=O)CN(CC(=O)NCCCC[C@H](NC(=O)[C@H](Cc1ccccc1)NC(=O)[C@H](Cc1ccc(O)cc1)NC(=O)[C@@H](NC(=O)[C@H](CCCNC(=N)N)NC(=O)[C@@H](NC(=O)[C@H](Cc1c[nH]cn1)NC(=O)[C@H](CCC(N)=O)NC(=O)[C@H](CCCNC(=N)N)NC(=O)[C@H](CCCNC(=N)N)NC(=O)[C@H](Cc1c[nH]cn1)NC(=O)[C@H](Cc1c[nH]cn1)NC(=O)[C@H](CCCNC(=N)N)NC(C)=O)C(C)C)[C@@H](C)CC)C(N)=O)C(=O)CCNC(=O)OC(C)(C)C)C(N)=O [Peptide 333]
IC50 ([2]; 48 h): < 10 µM

Source: patent US20070203066A1, “Compositions and methods for inhibiting cellular proliferation” (priority 2005, published 2007)
